Format in all cases: cell-based
For experiment [1], the target named is T1, wild-type Androgen Receptor (AR-wt) (Homo sapiens (Human), UniProt P10275). Put plainly: LNCaP-AR-wt AG reporter assay (agonist mode). As to conditions: for Emax: read-out: LNCaP-AR-wt AG MAX % Stim. On the technique in general: In a reporter assay the amount or activity of a reporter protein is the signal.
In experiment [2] the target is T2, F876L mutant Androgen Receptor (AR-F876L) (Homo sapiens (Human), UniProt P10275, F877L). Put plainly: LNCaP-AR-F876L ANT reporter assay (antagonist mode). To be noted: for Emax: read-out: LNCaP-AR-F876L ANT MAX % Inh.
T2 sequence (P10275 whole entry F877L): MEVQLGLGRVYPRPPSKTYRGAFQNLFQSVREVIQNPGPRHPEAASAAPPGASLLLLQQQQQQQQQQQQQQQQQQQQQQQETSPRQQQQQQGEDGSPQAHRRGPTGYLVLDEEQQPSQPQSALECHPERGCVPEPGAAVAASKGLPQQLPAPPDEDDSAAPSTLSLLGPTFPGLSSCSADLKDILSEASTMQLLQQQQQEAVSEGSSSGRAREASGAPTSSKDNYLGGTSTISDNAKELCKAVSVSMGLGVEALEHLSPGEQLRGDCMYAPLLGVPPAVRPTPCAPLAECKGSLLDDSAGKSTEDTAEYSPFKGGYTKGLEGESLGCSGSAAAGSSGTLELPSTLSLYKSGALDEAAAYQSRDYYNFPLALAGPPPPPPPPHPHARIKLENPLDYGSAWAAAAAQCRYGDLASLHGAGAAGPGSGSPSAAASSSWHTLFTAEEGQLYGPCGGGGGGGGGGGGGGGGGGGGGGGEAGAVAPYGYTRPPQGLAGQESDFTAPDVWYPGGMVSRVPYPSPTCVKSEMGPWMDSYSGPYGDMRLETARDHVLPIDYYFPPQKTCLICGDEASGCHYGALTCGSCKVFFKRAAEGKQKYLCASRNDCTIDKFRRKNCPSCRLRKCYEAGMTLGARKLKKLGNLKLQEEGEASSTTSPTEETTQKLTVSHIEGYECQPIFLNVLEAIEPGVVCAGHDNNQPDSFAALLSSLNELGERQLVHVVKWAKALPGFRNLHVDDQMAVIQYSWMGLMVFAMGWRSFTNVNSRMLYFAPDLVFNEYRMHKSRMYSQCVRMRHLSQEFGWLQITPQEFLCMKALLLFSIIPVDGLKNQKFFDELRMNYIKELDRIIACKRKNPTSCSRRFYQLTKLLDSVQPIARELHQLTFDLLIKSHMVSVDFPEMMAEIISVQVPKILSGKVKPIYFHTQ
Experiment [3] concerns the target T1, wild-type Androgen Receptor (AR-wt). Put plainly: LNCaP-AR-wt ANT reporter assay (antagonist mode). To be noted: for Emax: read-out: LNCaP-AR-wt ANT MAX % Inh.
Experiment [4] deals with T2, F876L mutant Androgen Receptor (AR-F876L). Put plainly: LNCaP-AR-F876L AG reporter assay (agonist mode). To be noted: for Emax: read-out: LNCaP-AR-F876L AG MAX % Stim.
The mark [5] stands for this setting: agonist mode, pEC50 = −Log10(EC50 in Molar), read-out: LNCaP-AR-wt AG pEC50 (converted).
Where [6] appears, read: maximum % stimulation (agonist response) over the tested concentration range.
Where [7] appears, read: antagonist mode, pIC50 = −Log10(IC50 in Molar), read-out: LNCaP-AR-F876L ANT pIC50 (converted).
Where [8] appears, read: maximum % inhibition of R1881 control response over the tested concentration range.
Where [9] appears, read: antagonist mode, pIC50 = −Log10(IC50 in Molar), read-out: LNCaP-AR-wt ANT pIC50 (converted).
The mark [10] stands for this setting: agonist mode, pEC50 = −Log10(EC50 in Molar), read-out: LNCaP-AR-F876L AG pEC50 (converted).
Setting [11] is: agonist mode, maximum % stimulation over tested concentration range.
The mark [12] stands for this setting: antagonist mode, maximum % inhibition of R1881 control response over tested concentration range.

Like-named read-outs stand apart in the source and are kept apart here.

T1 sequence (P10275 whole entry): as the sequence (P10275 whole entry F877L) above, with L877F counted along it

As for `CN1CCC[C@H](CNC(=O)c2ccc(N3C(=S)N(c4cnc(C#N)c(C(F)(F)F)c4)C(=O)C34CCC4)cc2)C1` [Cpd 184, 4-[6-[6-cyano-5-(trifluoromethyl)-3-pyridyl]-5-oxo-7-thioxo-6,8-diazaspiro[3.4]octan-8-yl]-N-[[(3R)-1-methyl-3-piperidyl]methyl]benzamide], the EC50 in experiment [1] (setting [5]) and in experiment [4] (setting [10]) was over 15100 nM in each case. The Emax in experiment [1] (setting [6]) came to 0.2%; in experiment [2] (setting [8]), 99.6%; in experiment [3] (setting [8]) it was 100%; in experiment [4] (setting [6]), 0.4%. Also, the values for the IC50 in experiment [2] (setting [7]) and in experiment [3] (setting [9]) were 447 nM and 813 nM, respectively.

On to `CN1CCC[C@@H](CNC(=O)c2ccc(N3C(=S)N(c4cnc(C#N)c(C(F)(F)F)c4)C(=O)C34CCC4)cc2)C1` [Cpd 185, 4-[6-[6-cyano-5-(trifluoromethyl)-3-pyridyl]-5-oxo-7-thioxo-6,8-diazaspiro[3.4]octan-8-yl]-N-[[(3S)-1-methyl-3-piperidyl]methyl]benzamide], for which the Emax in experiment [1] (setting [11]) came out at 0.2%; in experiment [2] (setting [12]) it was 102%; in experiment [3] (setting [12]) it was 102%; in experiment [4] (setting [11]), 0.8%. Moreover, the EC50 in experiment [1] (setting [5]) and in experiment [4] (setting [10]) was over 15100 nM throughout. In addition, the IC50 was 427 nM in experiment [2] (setting [7]) and 708 nM in experiment [3] (setting [9]).

For `N#Cc1ncc(N2C(=O)C3(CCC3)N(c3ccc(C(=O)NC[C@@H]4CCCNC4)cc3)C2=S)cc1C(F)(F)F` [Cpd 186, 4-[6-[6-cyano-5-(trifluoromethyl)-3-pyridyl]-5-oxo-7-thioxo-6,8-diazaspiro[3.4]octan-8-yl]-N-[[(3R)-3-piperidyl]methyl]benzamide], the Emax was found to be 0.1% in experiment [1] (setting [11]), 100% in experiment [2] (setting [12]), 99.8% in experiment [3] (setting [12]) and 0% in experiment [4] (setting [11]). For the same molecule, the EC50 in experiment [1] (setting [5]) and in experiment [4] (setting [10]) was over 15100 nM in each case. In addition, the values for the IC50 in experiment [2] (setting [7]) and in experiment [3] (setting [9]) were 2240 nM and 3160 nM, respectively.

For `CN1CC[C@@H](CNC(=O)c2ccc(N3C(=S)N(c4cnc(C#N)c(C(F)(F)F)c4)C(=O)C34CCC4)cc2)C1` [Cpd 187, 4-[6-[6-cyano-5-(trifluoromethyl)-3-pyridyl]-5-oxo-7-thioxo-6,8-diazaspiro[3.4]octan-8-yl]-N-[[(3S)-1-methylpyrrolidin-3-yl]methyl]benzamide], the Emax in experiment [1] (setting [11]) worked out at 0.3%; in experiment [2] (setting [12]) it was 101%; in experiment [3] (setting [12]) it was 101%; in experiment [4] (setting [11]), 0.2%. Besides, the EC50 in experiment [1] (setting [5]) and in experiment [4] (setting [10]) was over 15100 nM in each case. The IC50 was 513 nM in experiment [2] (setting [7]) and 1260 nM in experiment [3] (setting [9]).

For the molecule `C[N@+]1([O-])CC[C@H](Oc2ccc(N3C(=S)N(c4cnc(C#N)c(C(F)(F)F)c4)C(=O)C34CCC4)cc2)CC1` [Cpd 190, 5-[8-[4-(1-methyl-1-oxido-piperidin-1-ium-4-yl)oxyphenyl]-5-oxo-7-thioxo-6,8-diazaspiro[3.4]octan-6-yl]-3-(trifluoromethyl)pyridine-2-carbonitrile], the Emax in experiment [1] (setting [11]) is -0.1%; in experiment [2] (setting [12]), 97.4%; in experiment [3] (setting [12]) it was 95.3%; in experiment [4] (setting [11]), 0.1%. In addition, the EC50 in experiment [1] (setting [5]) and in experiment [4] (setting [10]) was over 15100 nM in each case. Also, the IC50 in experiment [2] (setting [7]) was 1660 nM; in experiment [3] (setting [9]), 3020 nM.

`CN1CCC(NC(=O)c2ccc(N3C(=S)N(c4cnc(C#N)c(C(F)(F)F)c4)C(=O)C34CCC4)cc2)C1` (centres unmarked) [Cpd 192, 4-[6-[6-cyano-5-(trifluoromethyl)-3-pyridyl]-5-oxo-7-thioxo-6,8-diazaspiro[3.4]octan-8-yl]-N-(1-methylpyrrolidin-3-yl)benzamide]: the Emax was determined as 0% in experiment [1] (setting [11]), 102% in experiment [2] (setting [12]), 101% in experiment [3] (setting [12]) and 0.1% in experiment [4] (setting [11]). Besides, the EC50 in experiment [1] (setting [5]) and in experiment [4] (setting [10]) was over 15100 nM each time. In addition, the IC50 is 692 nM in experiment [2] (setting [7]) and 1580 nM in experiment [3] (setting [9]).

`CN1CCC12CC(Oc1ccc(N3C(=S)N(c4cnc(C#N)c(C(F)(F)F)c4)C(=O)C34CCC4)cn1)C2` (centres unmarked) [Cpd 193, 5-[8-[6-[(3-methyl-3-azaspiro[3.3]heptan-6-yl)oxy]-3-pyridyl]-5-oxo-7-thioxo-6,8-diazaspiro[3.4]octan-6-yl]-3-(trifluoromethyl)pyridine-2-carbonitrile]: the Emax came out at 0.1% in experiment [1] (setting [11]), 101% in experiment [2] (setting [12]), 101% in experiment [3] (setting [12]) and 0.4% in experiment [4] (setting [11]). The EC50 in experiment [1] (setting [5]) and in experiment [4] (setting [10]) was over 15100 nM each time. Besides, the IC50 was 191 nM in experiment [2] (setting [7]) and 229 nM in experiment [3] (setting [9]).

For the molecule `CN(C(=O)OC(C)(C)C)C1(COc2ccc(N3C(=S)N(c4cnc(C#N)c(C(F)(F)F)c4)C(=O)C34CCC4)cc2)COC1` [Cpd 196, tert-butyl N-[3-[[4-[6-[6-cyano-5-(trifluoromethyl)-3-pyridyl]-5-oxo-7-thioxo-6,8-diazaspiro[3.4]octan-8-yl]phenoxy]methyl]oxetan-3-yl]-N-methyl-carbamate], the Emax is -0.2% in experiment [1] (setting [11]), 99.9% in experiment [2] (setting [12]), 100% in experiment [3] (setting [12]) and 0.2% in experiment [4] (setting [11]). In addition, the EC50 in experiment [1] (setting [5]) and in experiment [4] (setting [10]) was over 15100 nM each time. Also, the IC50 is 437 nM in experiment [2] (setting [7]) and 589 nM in experiment [3] (setting [9]).

With `CN(C)C1(c2ccc(N3C(=S)N(c4cnc(C#N)c(C(F)(F)F)c4)C(=O)C34CCC4)cc2)COC1` [Cpd 197, 5-(5-(4-(3-(dimethylamino)oxetan-3-yl)phenyl)-8-oxo-6-thioxo-5,7-diazaspiro[3.4]octan-7-yl)-3-(trifluoromethyl)picolinonitrile], the EC50 in experiment [1] and in experiment [4] was over 15100 nM throughout. Besides, the Emax in experiment [1] turned out to be 0.1%; in experiment [2], 101%; in experiment [3] it was 99.3%; in experiment [4], 0.3%. Further, the figures for the IC50 in experiment [2] (LNCaP-AR-F876L ANT pIC50) and in experiment [3] (LNCaP-AR-wt ANT pIC50) were 447 nM and 1070 nM, respectively.

In the case of `CC(=O)N1CCC(n2cc3ccc(N4C(=S)N(c5cnc(C#N)c(C(F)(F)F)c5)C(=O)C45CCC5)cc3n2)CC1` [Cpd 198, 5-[8-[2-(1-acetyl-4-piperidyl)indazol-6-yl]-5-oxo-7-thioxo-6,8-diazaspiro[3.4]octan-6-yl]-3-(trifluoromethyl)pyridine-2-carbonitrile], the Emax in experiment [1] (setting [11]) worked out at 0.1%; in experiment [2] (setting [12]) it was 102%; in experiment [3] (setting [12]) it was 102%; in experiment [4] (setting [11]), 0.1%. Further, the EC50 in experiment [1] (setting [5]) and in experiment [4] (setting [10]) was over 15100 nM each time. Besides, the IC50 in experiment [2] (setting [7]) and in experiment [3] (setting [9]) was 562 nM throughout.

In the case of `CN1CCC(n2cc3ccc(N4C(=S)N(c5cnc(C#N)c(C(F)(F)F)c5)C(=O)C45CCC5)cc3n2)CC1` [Cpd 199, 5-[8-[2-(1-methyl-4-piperidyl)indazol-6-yl]-5-oxo-7-thioxo-6,8-diazaspiro[3.4]octan-6-yl]-3-(trifluoromethyl)pyridine-2-carbonitrile], the Emax was -0.2% in experiment [1] (setting [11]), 102% in experiment [2] (setting [12]), 88.9% in experiment [3] (setting [12]) and 0.9% in experiment [4] (setting [11]). Further, the EC50 in experiment [1] (setting [5]) and in experiment [4] (setting [10]) was over 15100 nM in each case. For the same molecule, the IC50 in experiment [2] (setting [7]) is 1510 nM; in experiment [3] (setting [9]) it was 1620 nM.

Regarding `CN1CCC[C@@H](CNC(=O)c2ccc(N3C(=S)N(c4cnc(C#N)c(C(F)(F)F)c4)C(=O)C34CCC4)cc2F)C1` [Cpd 200, 4-[6-[6-cyano-5-(trifluoromethyl)-3-pyridyl]-5-oxo-7-thioxo-6,8-diazaspiro[3.4]octan-8-yl]-2-fluoro-N-[[(3S)-1-methyl-3-piperidyl]methyl]benzamide], the Emax in experiment [1] (setting [11]) worked out at 0.4%; in experiment [2] (setting [12]), 99.1%; in experiment [3] (setting [12]), 99.6%; in experiment [4] (setting [11]), 0.5%. Besides, the EC50 in experiment [1] (setting [5]) and in experiment [4] (setting [10]) was over 15100 nM each time. For the same molecule, the IC50 is 794 nM in experiment [2] (setting [7]) and 708 nM in experiment [3] (setting [9]).

As to `CN1CCC(CNC(=O)c2ccc(N3C(=S)N(c4cnc(C#N)c(C(F)(F)F)c4)C(=O)C34CCC4)cc2F)CC1` [Cpd 201, 4-[6-[6-cyano-5-(trifluoromethyl)-3-pyridyl]-5-oxo-7-thioxo-6,8-diazaspiro[3.4]octan-8-yl]-2-fluoro-N-[(1-methyl-4-piperidyl)methyl]benzamide], the Emax in experiment [1] (setting [11]) is -0.3%; in experiment [2] (setting [12]) it was 101%; in experiment [3] (setting [12]), 101%; in experiment [4] (setting [11]), 0%. Further, the EC50 in experiment [1] (setting [5]) and in experiment [4] (setting [10]) was over 15100 nM each time. The IC50 in experiment [2] (setting [7]) was 214 nM; in experiment [3] (setting [9]), 355 nM.
